“Also recorded” adds a separate entry of the source.
Experiments:
[1] = test system: vitamin D-deficient chick; assay: Intestinal Ca2+ absorption (ICA) in vitamin D-deficient chick; format: in vivo; details: relative to 100 pmol 1α,25(OH)2 D3 = 100%; i.m., 12 h before assay
rapid responses (VDRmem) = assay: Antagonist function (summary classification); details: Yes/No, Tables 1 and 6
VDRmem = assay: Rapid response (summary classification); details: Yes/No, Tables 1 and 6
[2] = test system: intestinal Ca2+ transport in perfused chick duodena (transcaltachia); assay: Transcaltachia assay (rapid stimulation of 45Ca2+ transport in perfused duodena)
Description: Duodenal loops from normal, vitamin D-replete chicks were lumenally perfused with ^45 Ca^2+ (5 uCi/ml of buffer). To establish basal transport rates, celiac artery of controls were perfused with control medium for the first 20 min. The duodena were then either re-exposed to control medium containing the vehicle ethanol (0.005%, final concentration) through the celiac artery, or vascularly perfused with 300 pM or 650 pM agonist analogs JM or JN or with 650 pM of a control reference compound 1α,25(OH)2 D3. The venous effluent was collected at 2 min intervals for liquid scintillation spectrophotometry of the ^45 Ca^2+. […] Values represent mean ±SEM for n=4 in each group.
The data shown in FIG. 13 are the mean ±SEM from 4-5 duodena. […] Open circles represent the negative control receiving no treatment with 1α,25(OH)2 D3 or analog. […] Data represent the ratio of treated to basal values ±SEM extracted from a time-course plot (as in panel A) at 32 minutes.
This example describes the assay used for testing rapid response transcaltachia described in J. Biol. Chem, 268: 13811-13819 (1993).
White Leghorn cockerels (Hyline International, Lakeview, Calif.) were obtained on the day of hatch and maintained on a vitamin D-supplemented diet (1.0% calcium and 1.0% phosphorus; O. H. Kruse Grain and Milling, Ontario, Calif.) for 5-6 weeks to prepare normal vitamin D3 -replete chicks for use in the transcaltachia studies.
Measurements of ^45 Ca^2+ transport were carried out in perfused chick duodena. Normal vitamin D-replete chicks weighing approximately 500 g were anesthetized with 0.3 ml per 100 g Chloropent (Fort Dodge, Iowa), and the duodenal loop was surgically exposed. The celiac vein and blood vessels branching off from the celiac artery were ligated before cannulation of the celiac artery itself, and vascular perfusion was immediately initiated. Both the celiac artery and vein of the duodena were perfused with modified Grey's balanced salt solution (GBSS) +0.9 mM Ca which was oxygenated with 95% O2 and 5% CO2. A basal transport rate was established by perfusion with control medium for 20 minutes after the intestinal lumen was filled with ^45 Ca^2+. The tissue was then exposed to 1α,25(OH)2 D3 or analogs or reexposed to control medium for an additional 40 minutes. The vascular perfusate was collected at 2 min intervals during the last 10 min of the basal and during the entire treatment period. Duplicate 100 μl aliquots were taken for determination of the ^45 Ca^2+ levels by liquid scintillation spectrometry.

VDRnuc = assay: Genomic response (summary classification); details: Yes/No, Tables 1 and 6
[3] = test system: vitamin D-deficient chick; assay: Bone Ca2+ mobilizing activity (BCM) in vitamin D-deficient chick; format: in vivo; details: relative to 100 pmol 1α,25(OH)2 D3 = 100%; i.m., 12 h before assay

In the case of `C=C1/C(=C\C=C2/CCC[C@]3(C)[C@@H]([C@H](C)CCCC(C)(C)O)CC[C@@H]23)C[C@@H](O)C[C@H]1O` [HL], the “Classic Vit D Responses ICA” value [1] is reported as less than 0.1%, the Antagonist (rapid responses (VDRmem)) is reported as “Yes and blocks or inhibits the action of agonist for rapid responses” and the “Rapid Response” value (VDRmem) is reported as “No”. For the same compound, the “transcaltachia caused by 1α,25(OH)2 D3 in presence of HL” value ([2]; HL 12 pM in combination with 1α,25(OH)2 D3 300 pM) was “particularly observable”, the “inhibition of 1α,25(OH)2 D3-stimulated transcaltachia” value (shortened to “inhibition”) ([2]; HL 60 pM in advance of 300 pM 1α,25(OH)2 D3) was “clear inhibition of transcaltachia” and the “inhibition” value ([2]; HL 400 pM, 1α,25(OH)2 D3 300 pM) was “clearly inhibited”. For the same compound, the “inhibition” value ([2]; HL administered before 1α,25(OH)2 D3 / FIG. 13 overall) was “almost completely inhibited; also recorded: potent ability of 1β,25(OH)2 D3 (HL) to block or antagonize”, the “Genomic Response” value (VDRnuc) was “No” and the “Classic Vit D Responses BCM” value [3] was less than 0.3%.

Source: patent US6103709A (priority 1998, dated 2000)
